Legend:
ZmPIP2 = assay: Osmotic water permeability assay, water channel activity of ZmPIP2 in the presence of cAMP agonists or phosphatase inhibitor; assay type: cell-based, Zea mays; conditions: cAMP agonists to activate cellular PKA, or protein phosphatase inhibitor
Experimental: (§1) Xenopus laevis oocytes were prepared and injected as previously described (Daniels et al., 1996). The osmotic water permeability assay was conducted as previously described (Weig et al., 1997).
A number of studies indicate that the activity of aquaporins may be regulated by phosphorylation. For instance, -TIP, a seed specific vacuolar protein from bean, is phosphorylated in vivo and in vitro and the phosphorylation regulates its water channel activity in Xenopus oocytes (Maurel et al., 1993). […] Water channel activity of ZmPIP2 was tested in the presence of (1) cAMP agonists (8-bromoadenosine 3', 5'-cyclic monophosphate, forksolin and 3-isobutyl-1-methylxanthine) to increase the cytosolic cAMP concentration and activate cellular PKA and (2) protein phosphatase inhibitor okadeic acid.

ZmPIP3 = target: T1, ZmPIP3 (Zea mays, UniProt Q9XF58); assay: Osmotic water permeability assay (Xenopus oocyte swelling), inhibition of water transport through ZmPIP3; assay type: cell-based
T1 construct: plasma membrane swelling assay; insert borders and tag not described
T1 sequence (Q9XF58 1-284): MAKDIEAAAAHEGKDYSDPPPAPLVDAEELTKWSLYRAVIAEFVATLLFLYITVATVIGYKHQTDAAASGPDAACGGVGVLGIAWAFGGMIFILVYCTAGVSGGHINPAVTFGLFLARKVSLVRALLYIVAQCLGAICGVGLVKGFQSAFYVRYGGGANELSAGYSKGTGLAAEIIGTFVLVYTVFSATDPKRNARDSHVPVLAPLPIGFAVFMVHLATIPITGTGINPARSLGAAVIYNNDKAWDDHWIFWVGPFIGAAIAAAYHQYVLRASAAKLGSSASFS
Experimental: as §1
(§2) The biological activity of aquaporins is usually determined with Xenopus oocyte swelling assays (Maurel et al, 1993). MIP cRNA is injected into oocytes and after a 3-day incubation the oocytes are moved to a hypotonic medium. If water channel proteins are present in the plasma membrane, the oocytes swell and burst much faster than the control oocytes. […] The osmotic water permeability coefficient (Pf) of the oocyte membrane increased 8-fold over the control. Mercurial compounds are characteristic inhibitors of many water-channel proteins. Water transport through ZmPIP3 is inhibited 50% by 1 mM mercuric chloride and this inhibition is reversed by the reducing agent -mercaptoethanol.

Xenopus laevis oocytes [1] = assay: Radiolabeled solute uptake assay in ZmPIP2-expressing oocytes; assay type: cell-based; conditions: 1 mM solute, 21° C., 0, 15 and 30 min
Experimental: Two to three days after water or mRNA injection, groups of 5 oocytes were incubated at 21° C. in […] of Barth's solution containing 0.1 to 0.5 MBq/ml of the radiolabeled solutes ([^14 C]glycerol, […]; [^14 C]choline, 2.0 GBq/mmol; [^14 C]ethanol, 0.144 GBq/mmol; [^14 C]urea, 2.0 GBq/mmol or [^14 C]labeled amino acid mixture without methionine, 1.85 MBq/ml). Nonradioactive solutes were added to give a 1 mM final concentration. After 0, 15 and 30 min, the oocytes were washed rapidly three times in ice-cold Barth's solution, and individual oocytes were dissolved in 5% SDS for scintillation counting.
Although many MIP proteins are aquaporin, some of them can transport small neutral solutes, exclusively or in addition to water. For instance, tobacco NtTIPa and NtAQP1 transport glycerol in addition to water (Gerbeau et al., 1999), whilst the bacterial GIpF is a selective glycerol facilitator. Transport essays were performed in ZmPIP2-expressing oocytes with a series of labeled solutes including glycerol, urea, ethanol, choline and amino acids.

Xenopus laevis oocytes [2] = assay: Osmotic water permeability assay of cRNA-injected oocytes (Pf of the oocyte membrane); assay type: cell-based; conditions: cRNA-injected oocytes moved to hypotonic medium after 3-day incubation; versus control oocytes
Experimental: as §1, §2

Molecule: Nc1ncnc2c1nc(Br)n2[C@@H]1O[C@@H]2COP(=O)(O)O[C@H]2[C@H]1O [8-bromoadenosine 3', 5'-cyclic monophosphate]
- effect on Pf of ZmPIP2-expressing oocytes (ZmPIP2): None of these treatments affected the Pf

Molecule: [Cl][Hg][Cl] [mercuric chloride]
- inhibition of water transport through ZmPIP3 (ZmPIP3; 1 mM mercuric chloride, ZmPIP3 cRNA-injected Xenopus oocytes): 50%

Molecule: okadeic acid
- effect on Pf of ZmPIP2-expressing oocytes (ZmPIP2): None of these treatments affected the Pf

Molecule: C=C[C@@]1(C)CC(=O)[C@]2(O)[C@@]3(C)[C@@H](O)CCC(C)(C)[C@@H]3[C@H](O)[C@H](OC(C)=O)[C@@]2(C)O1 [forksolin]
- effect on Pf of ZmPIP2-expressing oocytes (ZmPIP2): None of these treatments affected the Pf

Molecule: CC(C)Cn1c(=O)n(C)c(=O)c2[nH]cnc21 [3-isobutyl-1-methylxanthine]
- effect on Pf of ZmPIP2-expressing oocytes (ZmPIP2): None of these treatments affected the Pf

Molecule: OCCS [-mercaptoethanol]
- reversal of mercuric chloride inhibition of ZmPIP3 water transport (ZmPIP3; reducing agent added after 1 mM mercuric chloride inhibition): reversed

B1: ZmPIP2: maize aquaporin designation; polypeptide of SEQ ID NO: 2, expressed from cRNA in Xenopus oocytes (protein)
chain: MEGKEEDVRLGANKFSERQPIGTAAQGAADDKDYKEPPPAPLFEPGELKSWSFYRAGIAEFVATFLFLYITILTVMGVSKSTSKCATVGIQGIAWSFGGMIFALVYCTAGISGGHINPAVTFGLFLARKLSLTRALFYIIMQCLGAICGAGVVKGFQQGLYMGNGGGANVVAPGYTKGDGLGAEIVGTFILVYTVFSATDAKRNARDSHVPILAPLPIGFAVFLVHLATIPITGTGINPARSLGAAIIYNRDHAWNDHWIFWVGPFIGAALAAIYHQVIIRAIPFKSR
- transport of labeled solutes (glycerol, urea, ethanol, choline, amino acids) versus water-injected oocytes (Xenopus laevis oocytes [1]): None of the solutes tested were preferentially transported

B2: AtRD28: plasma membrane AtRD28 aquaporin (Daniels et al., 1994), positive control in oocytes (protein, UniProt P30302 1-285, looked up)
Aquaporin PIP2-3: MAKDVEGPDGFQTRDYEDPPPTPFFDAEELTKWSLYRAVIAEFVATLLFLYVTVLTVIGYKIQSDTKAGGVDCGGVGILGIAWAFGGMIFILVYCTAGISGGHINPAVTFGLFLARKVSLIRAVLYMVAQCLGAICGVGFVKAFQSSHYVNYGGGANFLADGYNTGTGLAAEIIGTFVLVYTVFSATDPKRNARDSHVPVLAPLPIGFAVFMVHLATIPITGTGINPARSFGAAVIFNKSKPWDDHWIFWVGPFIGATIAAFYHQFVLRASGSKSLGSFRSAANV
- increase of osmotic water permeability coefficient (Pf) of the oocyte membrane over the control (Xenopus laevis oocytes [2]): 8 fold

B3: ZmPIP3: maize aquaporin; polypeptide of SEQ ID NO: 4, expressed from cRNA in Xenopus oocytes (protein)
chain: MAKDIEAAAAHEGKDYSDPPPAPLVDAEELTKWSLYRAVIAEFVATLLFLYITVATVIGYKHQTDAAASGPDAACGGVGVLGIAWAFGGMIFILVYCTAGVSGGHINPAVTFGLFLARKVSLVRALLYIVAQCLGAICGVGLVKGFQSAFYVRYGGGANELSAGYSKGTGLAAEIIGTFVLVYTVFSATDPKRNARDSHVPVLAPLPIGFAVFMVHLATIPITGTGINPARSLGAAVIYNNDKAWDDHWIFWVGPFIGAAIAAAYHQYVLRASAAKLGSSASFS
- increase of osmotic water permeability coefficient (Pf) of the oocyte membrane over the control (Xenopus laevis oocytes [2]): 8 fold
